Test results: publication PMC7076374, “Improved Pharmacokinetics and Tissue Uptake of Complexed Daidzein in Rats” (Pharmaceutics, 2020)
Like-named read-outs stand apart in the source and are kept apart here.

What was measured:
in vivo [1] = conditions: rat, iv, 20 mg/kg
Method: (§1) DAI in the form of a suspension in saline was administered to the rats at the doses of 20 mg/kg (i.v.) and 50 mg/kg (i.p.).
Blood samples were collected via a retro-orbital puncture at 15 min, 30 min, 3 h, 5 h, and 24 h after i.v. administration. The first two blood samples (at 15 min and 30 min) were withdrawn while the rats were still under general anesthesia. For the later time-points, the blood was taken under a short isoflurane anesthesia. One mL of saline was administered i.p. after every blood withdrawal to compensate the loss of water. The rats were sacrificed by decapitation 24 h after compound administration. All blood samples were centrifuged to obtain serum. The serum samples were frozen in a freezer at −80 °C.
(§2) PK parameters were calculated using a non-compartmental approach from the average concentration values, using Phoenix WinNonlin software (Certara, St. Louis, MO, USA). The first-order elimination rate constant (λz) was calculated by linear regression of log concentration versus time. The area under the mean serum and tissue concentration versus time curve (AUC0⟶t) was calculated from zero to the last concentration point using the linear trapezoidal rule as (1) AUC0→t=∑i=1nCi+Ci+1/2·(ti+1−ti) where Ci is the concentration of the compound.
(§3) The area under the first-moment curve (AUMC0⟶t) was estimated by calculation of the total area under the first-moment curve:(2) AUMC0→t=∑i=1n((ti·Ci+ti+1·Ci+1)/2)·(ti+1−ti) where ti is the […].
(§4) Mean residence time (MRT) was calculated as (3) MRT=AUMC0→t/AUC0→t
Systemic clearance (Cl) was calculated as (4) Cl=Div/AUC0→t
The volume of distribution at steady state (Vss) was calculated as (5) Vss=Div⋅AUMC0→t/(AUC0→t)^2

in vivo [2] = conditions: for tmax: DAI in suspension, i.p. 50 mg/kg, rat serum
Method: as §1
The second study was conducted in 48 animals to assess DAI tissue penetration and bioavailability. […] Animals were deeply anaesthetized by i.p. injections of 50 mg/kg ketamine plus 8 mg/kg xylazine before sacrifice. First, the blood was collected by retro-orbital puncture, and the blood samples were centrifuged to obtain serum. The serum samples were frozen in a freezer at −80 °C. A whole-body saline perfusion was then performed after wide laparotomy when the heart was exposed, and the tip of the needle was inserted into the left ventricle and the right atrium was cut to allow efflux of blood. This procedure allowed the blood from all tissues to be washed out to determine the amount of DAI in the tissue, excluding its content in the blood. Following the animals’ euthanasia, the following samples were collected: whole brain, whole eyes, liver lobe, abdominal fat, one kidney, whole spleen, one testis, and selected parts of heart and lungs. The brain was cut between hemispheres in halves; one half was weighed, inserted into 2 mL of SDS-tris lysing buffer (100 mM tris buffer, 10% glycerol, 1% sodium dodecyl sulfate), and homogenized with a tissue homogenizer. The other half of the brain, the homogenates, and all other tissue samples collected were immediately shock-frozen in liquid nitrogen and stored at −80 °C for future analysis.
as §2, §3, §4

[3] = healthy premenopausal women, cited from earlier work
[4] = male, rat, in vivo, ip, 50 mg/kg

## O=c1c(-c2ccc(O)cc2)coc2cc(O)ccc12 [DAI in Suspension, 7-hydroxy-3-(4-hydroxyphenyl)-4H-chromen-4-one]
In vivo [1]
  AUC: 1580 ng·h/mL
  C0: 6160 ng/mL
  MRT: 4.29 h
  clearance: 211 mL/min/kg
  half-life: 3.83 h
In vivo [2]; 50 mg/kg
  tmax: 0.75 h
In vivo [2]; male, rat, in vivo
  bioavailability: 28.2%
In vivo [2]; [4]
  AUC: 1110 ng·h/mL
  CL/F: 775 mL/min/kg
  MRT: 3.63 h
  Vd/F: 220 L/kg
  half-life: 3.41 h
In vivo [2]; male, rat, in vivo, ip, 50 mg/kg, Cmax
  Cmax: 173 ng/mL
In vivo [2]; male, rat, in vivo, ip, 50 mg/kg, tmax
  tmax: ≤ 0.75 h
[3]; first value of '5.15% vs. 8.7%', at higher intakes
  Bioavailability of DAI: 5.15%
[3]; second (comparison) value of '5.15% vs. 8.7%'
  Bioavailability of DAI: 8.7%
